According to patent publication US6673561B1, “Diagnostic test for thrombotic or thromboembolic disease” (Regents of the University of California, priority 1999, dated 2004):
Entries after “also recorded” stand apart in the source; their conditions may differ.

Experiments:
[1] = system: FPB antiserum (R4097, bleed I3); assay: Competitive ELISA for specificity of the FPB antiserum (competitor in solution vs surface-bound synthetic human FPB); format: binding, rabbit; settings: for cross-reactivity, defined as IC50 of FPB divided by IC50 of competitor times 100: FPB antiserum, competitive ELISA; for IC50: FPB antiserum 1:2500, competitive ELISA, read-out: IC50, competition for antibody binding to surface-bound synthetic human FPB; for competition / cross-reaction with FPB antiserum (in words): competitor in solution vs surface-bound synthetic human FPB
Description: A competitive ELISA was developed to evaluate the specificity of the FPB antiserum. Unless otherwise noted, all steps were performed at room temperature, and the microplates were washed three times in between each step with 0.02 M NaH2PO4, 0.15 M NaCl, 1 mM EDTA, pH 7.4 (PNE) containing 0.1% tween-20. Microplate wells were first coated with synthetic human FPB ([…] in 0.2 M NaHCO3, […]) overnight at 4 C., and then “blocked” with 1% BSA in PNE (PNEA) for one hour. Meanwhile, serial dilutions of each competitor were prepared. The following competitors, all of human origin except where noted, were tested: native FPB (human and canine), synthetic FPB, synthetic des-arg FPB, synthetic fibrinopeptide A, and purified fibrinogen. […] of each competitor dilution were pre-incubated separately with […] of FPB antiserum (1:2500) in polypropylene microfuge tubes for 90 min. Dilutions of the competitors and of antiserum were prepared in dilution buffer (PNEA containing 0.1% tween-20). At the end of the pre-incubation period, 100 mL of each mixture were applied to duplicate FPB-coated wells and incubated for 90 min. After washing, 100 mL of peroxidase-conjugated goat anti-rabbit IgG detecting antibody (1:5000 in dilution buffer) were added to each well and incubated for one hour. After a final wash, each well was developed with 100 ml of OPD substrate solution for exactly five minutes. The reaction was stopped by addition of an equal volume of 3 N H2SO4, and the absorbance (490 nm) of each well was measured in the microplate reader.
A competitive ELISA was developed for determination of the FPB concentration in plasma and urine ultrafiltrates. Unless otherwise noted, all steps were performed at room temperature, and the microplates were washed three times in between each step with 0.02 M NaH2PO4, 0.15 M NaCl, 1 mM EDTA, pH 7.4 (PNE) containing 0.1% tween-20. Microplate wells were first coated with synthetic FPB (2 μg/ml in 0.2 M NaHCO3, 100 μl/well) overnight at 4 C., and then “blocked” with 1% BSA in PNE (PNEA) for one hour. Meanwhile, 20 μl of ultrafiltered samples and synthetic FPB standards (1.56-100 ng/ml) were pre-incubated separately with 200 μl of FPB antiserum (1:2500) in polypropylene microfuge tubes for one hour. Dilutions of the FPB standard and antiserum were prepared in dilution buffer (PNEA containing 0.1% tween-20). At the end of the pre-incubation period, 100 μl of each mixture were applied to duplicate FPB-coated wells and incubated for one hour. After washing, 100 μl of peroxidase-conjugated goat anti-rabbit IgG detecting antibody (1:5000 in dilution buffer) were added to each well and incubated for one hour. After a final wash, each well was developed with 100 μl of OPD substrate solution for exactly five minutes. The reaction was stopped by addition of an equal volume of 3 N H2SO4, and the absorbance (490 nm) of each well was measured in a microplate reader. The concentration of FPB in the samples was interpolated from a standard curve obtained by plotting the FPB concentration of each standard versus the corresponding absorbance. If sample values exceeded the upper limit of the standard curve, those samples were re-tested after appropriate dilution with dilution buffer. The intra- and inter-assay coefficients of variation for the FPB assay were 14.1% and 5.0%, respectively. The competitive ELISA was also used to assess the cross-reactivity of the FPB antiserum with human fibrinogen, fibrinopeptide A (FPA), des-arg FPB, and canine FPB.

[2] = system: femoral vein thrombi / pulmonary emboli; assay: Canine fibrinogen-replacement thrombosis and pulmonary embolism model, FPB in plasma and urine (Example 3); format: in vivo, dog; settings: n=3
Description: A competitive ELISA was developed for determination of the FPB concentration in plasma and urine ultrafiltrates. Unless otherwise noted, all steps were performed at room temperature, and the microplates were washed three times in between each step with 0.02 M NaH2PO4, 0.15 M NaCl, 1 mM EDTA, pH 7.4 (PNE) containing 0.1% tween-20. Microplate wells were first coated with synthetic FPB (2 μg/ml in 0.2 M NaHCO3, 100 μl/well) overnight at 4 C., and then “blocked” with 1% BSA in PNE (PNEA) for one hour. Meanwhile, 20 μl of ultrafiltered samples and synthetic FPB standards (1.56-100 ng/ml) were pre-incubated separately with 200 μl of FPB antiserum (1:2500) in polypropylene microfuge tubes for one hour. Dilutions of the FPB standard and antiserum were prepared in dilution buffer (PNEA containing 0.1% tween-20). At the end of the pre-incubation period, 100 μl of each mixture were applied to duplicate FPB-coated wells and incubated for one hour. […] The reaction was stopped by addition of an equal volume of 3 N H2SO4, and the absorbance (490 nm) of each well was measured in a microplate reader. The concentration of FPB in the samples was interpolated from a standard curve obtained by plotting the FPB concentration of each standard versus the corresponding absorbance. […]

[3] = system: experimentally induced thrombi; assay: Canine experimental thrombosis model, FPBtot in plasma and urine (Example 2); format: in vivo, dog; settings: heparin bolus 300 units/kg, infusion 90 units/kg/hr after embolization, three dogs
Excerpt: Adult mongrel dogs were anesthetized and their native fibrinogen depleted. After the ancrod has been eliminated from the circulation, during a time when the native fibrinogen activity is minimal, experimental thrombi are induced as previously described (Morris et al. 1997b). The dogs are anesthetized with halothane, intubated and mechanically ventilated to maintain arterial blood gases within normal limits. […] After this, they were transfused with 6 grams of purified human fibrinogen in normal saline to achieve a fibrinogen level of at least 300 mg/dl. Under these conditions, fibrinogen levels were maintained at >200 mg/dl throughout the study period.
Double balloon catheters were advanced via hind-leg saphenous veins to the femoral veins on each side. The balloons were then inflated, creating a 5 ml sealed chamber within the veins. […]
Blood and urine samples were collected into titrated tubes (containing protease inhibitors) at baseline, after defibrinogenation, at regular intervals after thrombus induction, and after anticoagulation. […] All samples were stored at […] until analyzed. FPBtot levels in urine and ultrafiltrated plasma are determined by immunoassay as described above.
The means and standard deviations of the FPBtot levels, as determined by immunoassay, associated with each time point are calculated. […]

[4] = Urinary FPBtot before and during anticoagulation in VTE patients (Example 6); format: in vivo, human
Excerpt: Consecutive patients referred to the VTE service in whom the diagnosis of DVT and/or PE is confirmed (based on the criteria described above) are enrolled. Prior to therapy, blood and urine samples are collected for measurement of FPBtot (and other FPB measurements described above). Patients are then be treated with intravenous heparin (80 units/kg bolus, 18 units/kg/hr infusion), with the dose adjusted per protocol to keep aPTT 1.5-2.5 times the control values. As soon as steady-state “therapeutic doses” of heparin are maintained, blood and urine are collected again and the same parameters are measured. In addition, plasma aPTT, anti-Xa and anti-thrombin measurements are made as previously described (Morris et al. 1998).
For each patient, the difference between urinary and plasma FPBtot levels, measured before and after anticoagulation, is recorded. The mean reduction in FPBtot levels after anticoagulation is calculated. The required sample size is estimated based on the preliminary data described below: The mean (+/−SD) decrease in urinary FPBtot during anticoagulation was 60 ng/ml (+/−85.7 ng/ml). Assuming similar standard deviations for the VTE patients to be studied, thirty-seven pairs of samples are required in order to detect a 50% decrease in the levels after anticoagulation, with an alpha of 0.01 and a power of 95%.

In the case of “FPA: short amino acid sequence at the amino terminus of the alpha chain of fibrinogen (ADSGEGDFLAEGGGVR)”, the “cross-reactivity, defined as IC50 of FPB divided by IC50 of competitor times 100” value [1] is reported as less than 0.1%.
In the case of “QGVNDNEEGFFSA [des-arg FPB, degradation product formed as FPB is exposed to carboxypeptidases in normal plasma]”, the IC50 [1] is reported as 8.9 nM and the “cross-reactivity, defined as IC50 of FPB divided by IC50 of competitor times 100” value [1] is reported as 75%.
Work on “QGVNDNEEGFFSAR [FPB, human fibrinopeptide B, cleaved by thrombin from the beta-chains of fibrin I]” yielded an IC50 [1] of 6.7 nM.
For “fibrinogen: purified human fibrinogen, used as ELISA competitor and for transfusion of dogs”, the IC50 [1] was 2.3 nM and the “competition / cross-reaction with FPB antiserum (in words)” value (“competition / cross-reaction” below) [1] was “significant cross-reaction; also recorded: significant cross-reactivity”.
In the case of heparin, the “rise in plasma FPB following embolization” value ([2]; heparin iv 300 units/kg bolus, 90 units/kg/hr, one hour prior to embolization) is reported as “completely suppressed”, the “initial peak of total urinary FPB” value ([2]; heparin iv one hour prior to embolization) is reported as “suppressed” and the “thrombosis after excess heparin” value [3] is reported as “thrombosis is halted”. For the same substance, the “urinary levels of FPB during anticoagulation (in words)” value ([4]; all but one patient) was “significantly decreased” and the “mean decrease in urinary FPBtot during anticoagulation” value ([4]; preliminary data, mean (+/-SD)) was 60 ng/mL.
In the case of “native canine FPB: FPB derived from purified canine fibrinogen clotted with thrombin, ultrafiltrate (HYYDDTDEEERIVSTVDAR)”, the “competition / cross-reaction” value [1] is reported as “did not compete”.
For “native human FPB: FPB derived from purified human fibrinogen clotted with thrombin, ultrafiltrate (QGVNDNEEGFFSAR)”, the “competition / cross-reaction” value [1] was “effective competitive inhibitor”.
